Test results published in US20210343946A1, “INFRARED ABSORBERS, INFRARED ABSORBING/BLOCKING FILMS AND PHOTOELECTRIC DEVICES AND ORGANIC SENSORS AND ELECTRONIC DEVICES” (Samsung Electronics Co., Ltd., priority 2020, published 2021).

Key:
[1] = Light absorption characteristics in a solution state (UV-Vis-NIR spectrometer); type: physicochemical; details: for UV-vis: λmax: CH2Cl2 Solution, in synthesis example; for λmax (nm) (solution): 1×10^−5 M
Procedure: The compounds according to Synthesis Examples 1 to 5 in dichloromethane, the compounds according to Comparative Synthesis Examples 1 and 2 in toluene, and the compound of Comparative Synthesis Example 3 in chloroform are respectively dissolved at a concentration of 1×10^−5 M to prepare solutions, and light absorption characteristics of the compounds in a solution state are evaluated. The light absorption characteristics are evaluated by using an UV-Vis-NIR spectrometer (UV-3600 Plus, Shimadzu Corp.) to measure a maximum absorption wavelength (λmax).

[2] = Light absorption characteristics in a thin film state (UV-Vis-NIR spectrometer); type: physicochemical; details: thin film spin-coated from chloroform on glass substrate
Procedure: In addition, the compounds of Synthesis Examples 1 to 5 are respectively dissolved in chloroform and coated on a glass substrate at 800 rpm for 60 seconds and at 400 rpm for 5 seconds with a spin coater, and the light absorption characteristics thereof in a thin film state are evaluated. The light absorption characteristics are evaluated by measuring a maximum absorption wavelength (λmax) by using a UV-Vis-NIR spectrometer (UV-3600 Plus, Shimadzu Corp.).

With `CCCCCCOc1cc(-c2c3c(c(-c4cc(OCCCCCC)c(-c5cc6c(s5)c5sc(CCCCCC)cc5n6CCCCCC)s4)c4nsnc24)N=S=N3)sc1-c1cc2c(s1)c1sc(CCCCCC)cc1n2CCCCCC` [Synthesis Example 2] the “UV-vis: λmax” value [1] was 1114 nm, the “λmax (nm) (solution)” value ([1]; in dichloromethane) was 1076 nm and the “λmax (nm) (thin film)” value [2] was 1120 nm.

For `CCCCCCOc1cc(-c2c3nsnc3c(-c3cc(OCCCCCC)c(-c4cc5c(s4)c4sc(CCCCCC)cc4n5CCCCCC)s3)c3nc4c5ccccc5c5ccccc5c4nc23)sc1-c1cc2c(s1)c1sc(CCCCCC)cc1n2CCCCCC` [Synthesis Example 4], the “UV-vis: λmax” value [1] was 1020 nm, the “λmax (nm) (solution)” value ([1]; in dichloromethane) was 1020 nm and the “λmax (nm) (thin film)” value [2] was 1058 nm.

In the case of `CCCCCCCCC1(CCCCCCCC)c2ccccc2-c2ccc(-c3ccc(-c4c5c(c(-c6ccc(-c7ccc8c(c7)C(CCCCCCCC)(CCCCCCCC)c7ccccc7-8)s6)c6nsnc46)N=S=N5)s3)cc21` [Comparative Synthesis Example 2, reference compound], the “λmax (nm) (solution)” value ([1]; in toluene) is reported as 848 nm.

In the case of `CCCCCCOc1cc(-c2c3nsnc3c(-c3cc(OCCCCCC)c(-c4cc5c(s4)c4sc(CCCCCC)cc4n5CCCCCC)s3)c3nc4c5ncccc5c5cccnc5c4nc23)sc1-c1cc2c(s1)c1sc(CCCCCC)cc1n2CCCCCC` [Synthesis Example 3], the “UV-vis: λmax” value [1] is reported as 1143 nm, the “λmax (nm) (solution)” value ([1]; in dichloromethane) is reported as 1143 nm and the “λmax (nm) (thin film)” value [2] is reported as 1166 nm.

With `CCCCCCCCOc1ccc(N(c2ccc(OCCCCCCCC)cc2)c2ccc(-c3ccc(-c4c5c(c(-c6ccc(-c7ccc(N(c8ccc(OCCCCCCCC)cc8)c8ccc(OCCCCCCCC)cc8)cc7)s6)c6nsnc46)N=S=N5)s3)cc2)cc1` [Comparative Synthesis Example 1, reference compound] the “λmax (nm) (solution)” value ([1]; in toluene) was 920 nm.

In the case of `CCCCCCOc1cc(-c2c3c(c(-c4cc(OCCCCCC)c(-c5cc6c(s5)c5sc(CCCCCC)cc5n6CCCCCC)s4)c4n[se]nc24)N=[Se]=N3)sc1-c1cc2c(s1)c1sc(CCCCCC)cc1n2CCCCCC` [Synthesis Example 5], the “UV-vis: λmax” value [1] is reported as 1376 nm, the “λmax (nm) (solution)” value ([1]; in dichloromethane) is reported as 1376 nm and the “λmax (nm) (thin film)” value [2] is reported as 1285 nm.

With `CCCCCCOc1cc(-c2c3c(c(-c4cc(OCCCCCC)c(-c5cc6c(s5)c5sc(CCCCCC)cc5n6CCCCCC)s4)c4nsnc24)N=[Se]=N3)sc1-c1cc2c(s1)c1sc(CCCCCC)cc1n2CCCCCC` [Synthesis Example 1] the “UV-vis: λmax” value [1] was 1256 nm, the “λmax (nm) (solution)” value ([1]; in dichloromethane) was 1256 nm and the “λmax (nm) (thin film)” value [2] was 1226 nm.
